# Several values for one entry are separate records, joined by “and”; a condition that tells them apart may be missing. Equal values may be shown once.
# Columns and labels:
# C222F GlTIM [1] = target: T1, C222F GlTIM (Giardia intestinalis, UniProt P36186, C222F); assay: Binding of 2-PG by change in intrinsic fluorescence; design: species or system Giardia lamblia
# T1 construct: made in house; host or cells: E. coli BL21(DE3)pLys
# Procedure: (§1) The change in the intrinsic fluorescence of GlTIM in response to the addition of the transition state analog 2-PG was used to determine the affinity of the enzyme for this ligand, as previously reported. Intrinsic fluorescence spectra were collected before and after each addition of 1 or 2 μL aliquots of a 3 or 30 mM stock solution of 2-PG. The final volume added to the fluorescence cell was always less than 5% of the total volume; there was no effect on the absorbance of the protein solution at 280 nm at the highest 2-PG concentration assayed. In all cases, the spectra of samples without protein were subtracted from those that contained the enzyme. For each mutant, the maximal fluorescence intensity at 332 nm, for every 2-PG concentration, was plotted and fitted to y = (α/2Et)(Et+x+Kd) - √ (Et+x+Kd)^2– (4xEt), where y = 1 - (Fi/F) (Fi, initial fluorescence; F, fluorescence intensity at each 2-PG concentration); α is the maximal fluorescence change attained at saturating concentration of the ligand, Et represents the concentration of binding sites, Kd is the equilibrium dissociation constant and x is the concentration of 2-PG [21], [23].
# C222N GlTIM [2] = target: T2, C222N GlTIM (Giardia intestinalis, UniProt P36186, C222N); assay: as above; design: species or system Giardia lamblia
# T2 construct: made in house; host or cells: E. coli BL21(DE3)pLys
# T2 sequence (P36186 whole entry C222N): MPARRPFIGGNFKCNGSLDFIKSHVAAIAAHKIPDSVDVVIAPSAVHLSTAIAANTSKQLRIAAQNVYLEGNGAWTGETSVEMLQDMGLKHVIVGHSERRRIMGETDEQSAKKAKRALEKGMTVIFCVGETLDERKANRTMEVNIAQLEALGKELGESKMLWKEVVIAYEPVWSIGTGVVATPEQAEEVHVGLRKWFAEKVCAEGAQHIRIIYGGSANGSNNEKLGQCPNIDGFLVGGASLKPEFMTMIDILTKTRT
# Procedure: as §1
# C222M GlTIM [3] = target: T3, C222M GlTIM (Giardia intestinalis, UniProt P36186, C222M); assay: as above; design: species or system Giardia lamblia
# T3 construct: made in house; host or cells: E. coli BL21(DE3)pLys
# T3 sequence (P36186 whole entry C222M): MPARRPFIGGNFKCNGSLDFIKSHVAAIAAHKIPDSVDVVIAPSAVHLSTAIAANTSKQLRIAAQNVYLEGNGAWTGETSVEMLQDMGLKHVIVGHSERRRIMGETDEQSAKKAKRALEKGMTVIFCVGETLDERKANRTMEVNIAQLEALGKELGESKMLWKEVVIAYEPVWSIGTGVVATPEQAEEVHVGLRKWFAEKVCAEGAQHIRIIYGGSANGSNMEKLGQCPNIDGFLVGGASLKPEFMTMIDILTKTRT
# Procedure: as §1
# C222K GlTIM [4] = target: T4, C222K GlTIM (Giardia intestinalis, UniProt P36186, C222K); assay: as above; design: species or system Giardia lamblia
# T4 construct: made in house; host or cells: E. coli BL21(DE3)pLys
# T4 sequence (P36186 whole entry C222K): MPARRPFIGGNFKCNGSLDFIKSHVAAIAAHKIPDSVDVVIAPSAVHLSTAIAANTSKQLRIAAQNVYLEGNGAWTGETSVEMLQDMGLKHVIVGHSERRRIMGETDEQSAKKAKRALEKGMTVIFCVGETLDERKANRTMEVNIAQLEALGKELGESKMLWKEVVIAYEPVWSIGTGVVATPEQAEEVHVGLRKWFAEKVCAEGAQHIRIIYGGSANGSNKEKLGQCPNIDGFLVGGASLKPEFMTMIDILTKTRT
# Procedure: as §1
# WT GlTIM [5] = target: T5, WT GlTIM (Giardia intestinalis, UniProt P36186); assay: as above; design: species or system Giardia lamblia; conditions: 2-PG vs WT GlTIM, fluorescence at 332 nm
# T5 construct: made in house; host or cells: E. coli BL21(DE3)pLys
# T5 sequence (P36186 whole entry): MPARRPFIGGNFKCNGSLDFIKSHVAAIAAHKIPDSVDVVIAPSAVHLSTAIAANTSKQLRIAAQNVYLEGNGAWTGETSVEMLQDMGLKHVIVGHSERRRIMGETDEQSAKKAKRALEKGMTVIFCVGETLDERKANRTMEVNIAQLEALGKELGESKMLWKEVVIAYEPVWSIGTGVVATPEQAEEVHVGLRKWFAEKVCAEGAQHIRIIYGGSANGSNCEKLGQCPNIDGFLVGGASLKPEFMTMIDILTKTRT
# Procedure: as §1
# C222D GlTIM [6] = target: T6, C222D GlTIM (Giardia intestinalis, UniProt P36186, C222D); assay: as above; design: species or system Giardia lamblia
# T6 construct: made in house; host or cells: E. coli BL21(DE3)pLys
# T6 sequence (P36186 whole entry C222D): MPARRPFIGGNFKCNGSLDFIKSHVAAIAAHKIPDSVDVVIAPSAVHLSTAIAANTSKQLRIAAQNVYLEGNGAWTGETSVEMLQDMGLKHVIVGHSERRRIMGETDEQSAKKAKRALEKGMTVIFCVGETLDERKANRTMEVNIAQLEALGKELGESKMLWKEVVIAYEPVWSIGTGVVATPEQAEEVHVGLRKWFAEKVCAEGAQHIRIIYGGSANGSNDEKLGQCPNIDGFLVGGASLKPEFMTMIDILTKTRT
# Procedure: as §1
# C222V GlTIM [7] = target: T7, C222V GlTIM (Giardia intestinalis, UniProt P36186, C222V); assay: as above; design: species or system Giardia lamblia
# T7 construct: made in house; host or cells: E. coli BL21(DE3)pLys
# T7 sequence (P36186 whole entry C222V): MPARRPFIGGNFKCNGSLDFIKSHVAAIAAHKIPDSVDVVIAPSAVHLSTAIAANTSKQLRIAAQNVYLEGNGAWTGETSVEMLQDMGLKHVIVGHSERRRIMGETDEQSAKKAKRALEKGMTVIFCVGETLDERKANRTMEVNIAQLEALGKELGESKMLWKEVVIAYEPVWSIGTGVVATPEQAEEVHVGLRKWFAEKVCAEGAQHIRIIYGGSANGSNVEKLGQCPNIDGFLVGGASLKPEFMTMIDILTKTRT
# Procedure: as §1
# C222F GlTIM [8] = target: T1, C222F GlTIM; assay: Competitive inhibition of TIM activity by 2-PG (global fit); assay type: biochemical, Giardia lamblia; conditions: 2-PG vs C222F
# Procedure: (§2) Glyceraldehyde 3-phosphate (GAP), buffers, salts and all the other analytical grade reagents were acquired from Sigma–Aldrich; α-glycerol-3-phosphate dehydrogenase (α-GDH) was from Roche, crystallization screen kits were obtained from Hampton Research. Restriction enzymes, DNA polymerase and T4 DNA ligase were purchased from New England BioLabs and Invitrogene. Oligonucleotide synthesis and DNA sequencing was performed at the Unidad de Biología Molecular, Instituto de Fisiología Celular, UNAM. Protein concentration was determined by the bicinchoninic acid method or by absorbance at 280 nm for pure GlTIM (ε280 = 26600 M^-1cm^-1). The TIM activity was determined at 25°C by a coupled assay, following the decrease in absorbance at 340 nm. The standard reaction mixture contained 100 mM triethanolamine/10 mM EDTA, pH 7.4 (TE buffer), 1 mM GAP, 0.2 mM NADH, and 0.9 units of α-GDH (20 μg/mL); the reaction was initiated by addition of 5 ng/mL of WT, C222V or C222M GlTIM, 10 ng/mL of C222N, 20 ng/mL of C222D or C222F, and 200 ng/mL of C222K. Kinetic, binding and stability data were analyzed by non-linear regression calculations with Origin software.
# (§3) Determination of Km and Vmax was performed by fitting initial velocity data at GAP concentrations ranging from 0.3 to 3 mM to the Michaelis-Menten equation (v = Vmax•S/Km+S) by non-linear regression calculations. The kcat was derived from Vmax by considering a molecular mass for the monomer of 27.7 kDa. The Ki for 2-phosphoglycolate (2-PG) was calculated by global fit of initial velocity curves (GAP from 0.3 to 3 mM) obtained at different fixed concentrations of the inhibitor. Prior to fitting collectively the data to the simple competitive inhibition equation (v = Vmax•S/Km(1+I/Ki)+S), individual data were plotted as double reciprocal plots to confirm competitive inhibition.
# C222N GlTIM [9] = target: T2, C222N GlTIM; assay: as above; assay type: biochemical, Giardia lamblia
# Procedure: as §2, §3
# C222M GlTIM [10] = target: T3, C222M GlTIM; assay: as above; assay type: biochemical, Giardia lamblia
# Procedure: as §2, §3
# C222K GlTIM [11] = target: T4, C222K GlTIM; assay: as above; assay type: biochemical, Giardia lamblia; conditions: highest concentrations of 2-PG that could be assayed
# Procedure: as §2, §3
# WT GlTIM [12] = target: T5, WT GlTIM; assay: as above; assay type: biochemical, Giardia lamblia; conditions: 2-PG vs WT GlTIM
# Procedure: as §2, §3
# C222D GlTIM [13] = target: T6, C222D GlTIM; assay: as above; assay type: biochemical, Giardia lamblia; conditions: 2-PG vs C222D
# Procedure: as §2, §3
# C222V GlTIM [14] = target: T7, C222V GlTIM; assay: as above; assay type: biochemical, Giardia lamblia
# Procedure: as §2, §3
# GlTIM = conditions: cited from earlier work
# [15] = tested on: yeast TIM, serine replaced by alanine in the YGGS motif; design: method as in PMID 1390632; conditions: mutant vs wild type yeast TIM; cited from earlier work
# [16] = tested on: yeast TIM, tyrosine by phenylalanine in the YGGS motif; design: method as in PMID 1390632; conditions: mutant vs wild type yeast TIM; cited from earlier work
# T1 sequence (P36186 whole entry C222F): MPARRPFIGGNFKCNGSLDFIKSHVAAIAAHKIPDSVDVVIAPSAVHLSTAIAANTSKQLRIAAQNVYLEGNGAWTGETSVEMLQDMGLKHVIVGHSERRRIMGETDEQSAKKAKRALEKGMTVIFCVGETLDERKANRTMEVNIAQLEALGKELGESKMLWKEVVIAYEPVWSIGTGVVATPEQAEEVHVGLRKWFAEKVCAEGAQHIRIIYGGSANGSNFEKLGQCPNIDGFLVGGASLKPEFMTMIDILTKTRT
smiles,measurement,setting,value
"O=C(O)COP(=O)(O)O [2-PG, 2-phosphoglycolate]",changes in fluorescence induced by 2-PG,C222F GlTIM [1],minimal
same,Kd,"C222N GlTIM [2]; 2-PG vs C222N, fluorescence at 332 nm",113 ± 41.7 µM
same,Kd MUT/Kd WT ratio,C222N GlTIM [2]; C222N vs WT,4.29
same,Kd,"C222M GlTIM [3]; 2-PG vs C222M, fluorescence at 332 nm",79.4 ± 8.5 µM
same,Kd MUT/Kd WT ratio,C222M GlTIM [3]; C222M vs WT,3.01
same,changes in fluorescence induced by 2-PG,C222K GlTIM [4],minimal
same,Kd,WT GlTIM [5],26.4 ± 2.6 µM
same,changes in fluorescence induced by 2-PG,C222D GlTIM [6],minimal
same,Kd,"C222V GlTIM [7]; 2-PG vs C222V, fluorescence at 332 nm",57.4 ± 7.1 µM
same,Kd MUT/Kd WT ratio,C222V GlTIM [7]; C222V vs WT,2.17
same,Ki,C222F GlTIM [8],7280 ± 2010 µM
same,Ki,"C222N GlTIM [9]; 2-PG vs C222N, competitive",560 ± 59 µM
same,Ki MUT/Ki WT ratio,C222N GlTIM [9]; C222N vs WT,6.4 and 6.44
same,Ki,"C222M GlTIM [10]; 2-PG vs C222M, competitive",325 ± 50 µM
same,Ki MUT/Ki WT ratio,C222M GlTIM [10]; C222M vs WT,3.7 and 3.74
same,inhibition by 2-PG,C222K GlTIM [11],only minimal inhibition was observed
same,Ki,WT GlTIM [12],87 ± 15 µM
same,Ki,C222D GlTIM [13],1480 ± 168 µM
same,Ki,"C222V GlTIM [14]; 2-PG vs C222V, competitive",98 ± 10 µM
same,Ki MUT/Ki WT ratio,C222V GlTIM [14]; C222V vs WT,1.13
"CSS(C)(=O)=O [MMTS, methylmethane thiosulfonate]",catalytic activity of GlTIM after derivatization of C222,GlTIM,reduced the catalytic activity of GlTIM by half
same,decrease of the kcat/Km ratio after modification of C222,GlTIM,three-fold decrease
"O=C(COP(=O)(O)O)NO [PGH, phosphoglycolohydroxamate]",change of affinity,[15],5 fold
same,increase in the Kd,[16],200 fold
"O=C(O)c1cc(SSc2ccc([N+](=O)[O-])c(C(=O)O)c2)ccc1[N+](=O)[O-] [DTNB, 5,5′-dithio-bis (2-nitrobenzoic acid)]",catalytic activity of GlTIM after derivatization of C222,GlTIM,completely abolished
same,inactivation of GlTIM,GlTIM,total inactivation
